PMC11990879, “Anticandidal Activity of Lipopeptides Containing an LL-37-Derived Peptide Fragment KR12” (Molecules, 2025)
≈ marks a conversion by molar mass, not a printed value. Like-named read-outs stand apart in the source and are kept apart here. Marks after values point to notes of the source that are not given here. Where a SMILES comes first, the peptide text is derived from it. The star is where a group is joined. Myristoyl = CCCCCCCCCCCCCC(=O)*; Lauroyl = CCCCCCCCCCCC(=O)*; Octanoyl = CCCCCCCC(=O)*; X1 = CCCCCCC(CCCC)C(=O)*

Assays:
[1] = system: C. albicans ATCC 10231; experiment: microbe, parasite or virus in culture; type: cell-based, Candida albicans; conditions: Candida albicans, ATCC10231, MIC wells and two higher concentrations seeded on DSA, 48 h, 25 °C, read visually, three times, read-out: Minimum fungicidal concentration (MFC), C. albicans
Experimental: (§1) Fungal strains were purchased from the Polish Collection of Microorganisms (Polish Academy of Science, Wroclaw, Poland). Four reference strains of Candida (C. albicans ATCC 10231, C. glabrata ATCC 15126, C. lypolytica PCM 2680, and C. tropicalis PCM 2680) were cultured on the Dextrose Sabouraud Agar (DSA, Neogen, Lansing, MI, USA). Before performing the assays, the fungi were cultured in a Sabouraud dextrose broth (DSB, Neogen, Lansing, MI, USA) for 48 h under aerobic conditions at 25 °C. Afterward, the fungal cultures were centrifuged (2500 rpm, 10 min) and resuspended in the appropriate liquid medium for appropriate inoculums for the performed assays.
(§2) The strains cultured described in Section 4.1 were suspended in the Roswell Park Memorial Institute 1640 Medium (RPMI, Sigma-Aldrich, St. Louis, MO, USA) at an initial inoculum of ca. 5 × 10^3 CFU/mL. The stock solutions (1024 mg/L) of tested compounds in RPMI were added to 96-well polystyrene plates and diluted serially to well no. 10, leaving wells 11 and 12 for fertility and sterility controls. The tested Candida strains were exposed to graded concentrations (range 0.5–256 mg/L) of the lipopeptides and conventional antifungals (benzalkonium chloride, fluconazole, and nystatin) for 48 h under aerobic conditions at 25 °C. After incubation, the results were read visually.
(§3) Then the results were read visually. Both MIC as well as the MFC assays were performed threetimes on three different days.

[2] = system: C. glabrata ATCC 15126; experiment: microbe, parasite or virus in culture; type: cell-based, Candida glabrata; conditions: Nakaseomyces glabratus, ATCC15126, MIC wells and two higher concentrations seeded on DSA, 48 h, 25 °C, read visually, three times, read-out: Minimum fungicidal concentration (MFC), C. glabrata
Experimental: as §1, §2, §3

[3] = system: C. albicans biofilms cultured on polystyrene; type: cell-based, Candida albicans; conditions: C. albicans biofilms of 24, 48 and 72 h, up to 512 mg/L
[4] = system: C. tropicalis PCM 2680; experiment: microbe, parasite or virus in culture; type: cell-based, Candida tropicalis; conditions: Candida tropicalis, PCM2680, MIC wells and two higher concentrations seeded on DSA, 48 h, 25 °C, read visually, three times, read-out: Minimum fungicidal concentration (MFC), C. tropicalis
Experimental: as §1, §2, §3

[5] = system: C. albicans biofilms cultured on polystyrene; type: cell-based, Candida albicans
Experimental: as §1
Fungal suspensions in DSB were added to the wells at initial inoculums of ca. 5 × 10^6 CFU/mL and incubated under aerobic conditions, at 25 °C for 24 h, 48 h, and 72 h, in order to grow candidal biofilms of different maturity. After the appropriate time of incubation, the wells were washed with phosphoric buffered (PBS), and fresh RPMI medium supplemented with antifungals and the lipopeptides at graded concentrations (range […]) were added. The fungal biofilms were exposed to the compounds for 24 h (aerobic conditions, 25 °C). After the exposure to antifungals, the content of the wells was aspirated and a 0.01% solution of resazurin (Sigma-Aldrich, St. Louis, MO, USA) in DSB was added. Resazurin (blue) was applied as a cell viability reagent, which upon contact with living cells is reduced to a pink resorufin. The samples with the dye were incubated for 1 h at 25 °C and the absorbance was measured at 570 and 600 nm with a microplate reader (Thermo Fisher Scientific, Waltham, MA, USA). The assays were performed four times on four different days. The results are presented as the means of the measured percentage of metabolic activity (MA) of fungi in the well when compared with positive (sample with Candida in DSB) and negative controls (pure DSB), which were taken as 100% and 0%, respectively. The MA of Candida in the samples was measured according to the following formula:MA(%) = (ΔAbs of sample − ΔAbs of negative control)/(ΔAbs of positive control − ΔAbs of negative control);(1) ΔAbs = absorbance at 570 nm − absorbance at 600 nm.(2)
The MBEC was taken as the lowest concentration of antifungal which allowed us to reduce the metabolism of fungal cells to 10% (or less) of the positive control.

[6] = system: Candida strains (C. albicans, C. glabrata, C. lipolytica, C. tropicalis); type: cell-based; conditions: for MIC, range over the tested strains: 48 h
Experimental: as §1, §2, §3

[7] = system: C. albicans ATCC 10231; experiment: microbe, parasite or virus in culture; type: cell-based, Candida albicans; conditions: Candida albicans, ATCC10231; C. albicans; RPMI 1640, inoculum ca. 5 × 10^3 CFU/mL, range 0.5–256 mg/L, 48 h, 25 °C, read visually, three times on three days; read-out: Minimum inhibitory concentration (MIC), C. albicans
Experimental: as §1, §2

[8] = system: C. tropicalis PCM 2680; experiment: microbe, parasite or virus in culture; type: cell-based, Candida tropicalis; conditions: Candida tropicalis, PCM2680; C. tropicalis; RPMI 1640, inoculum ca. 5 × 10^3 CFU/mL, range 0.5–256 mg/L, 48 h, 25 °C, read visually, three times on three days; read-out: Minimum inhibitory concentration (MIC), C. tropicalis
Experimental: as §1, §2

[9] = system: C. glabrata ATCC 15126; experiment: microbe, parasite or virus in culture; type: cell-based, Candida glabrata; conditions: Nakaseomyces glabratus, ATCC15126; first C. glabrata column; RPMI 1640, inoculum ca. 5 × 10^3 CFU/mL, range 0.5–256 mg/L, 48 h, 25 °C, read visually, three times on three days; read-out: Minimum inhibitory concentration (MIC), C. glabrata
Experimental: as §1, §2

[10] = system: C. lypolytica PCM 2680; experiment: microbe, parasite or virus in culture; type: cell-based, Candida lipolytica; conditions: Yarrowia lipolytica, PCM2680, MIC wells and two higher concentrations seeded on DSA, 48 h, 25 °C, read visually, three times, read-out: Minimum fungicidal concentration (MFC), C. lipolytica
Experimental: as §1, §2, §3

[11] = system: C. lypolytica PCM 2680; experiment: microbe, parasite or virus in culture; type: cell-based, Candida lipolytica; conditions: Yarrowia lipolytica, PCM2680, RPMI 1640, inoculum ca. 5 × 10^3 CFU/mL, range 0.5–256 mg/L, 48 h, 25 °C, read visually, three times on three days, read-out: Minimum inhibitory concentration (MIC), C. lipolytica
Experimental: as §1, §2

[12] = system: Staphylococcus aureus biofilm; conditions: previous study; ref [21]; cited from earlier work
Source text: Lipidation has proven to be an effective strategy for improving the microbiological properties of the KR12-NH2 peptide. […] The influence of the structure of substituted fatty acids as well as the lipidation pattern was noticed. Among derivatives containing linear fatty acid residues, an analog with octanoic acid turned out to be the most promising antibacterial agent. The C8-KR12-NH2 peptide (compound IV) inhibited the growth of both Gram-p ...

[13] = system: human red blood cells; conditions: cited from earlier work
Source text: Table 2 Minimum inhibitory concentrations (MIC) and minimum fungicidal concentrations (MFC) determined for peptides and reference antifungals [g/L]. The highest antimicrobial activity is marked in green, medium values in yellow, while the weakest antifungal activity is marked in red. Minimum hemolytic concentration (MHC5%—causing hemolysis of 5% of human red blood cells) determined in previous stu | column: MHC5%

[14] = biofilms cultured on polystyrene, 24 h
[15] = biofilms cultured on polystyrene, 48 h
[16] = biofilms cultured on polystyrene, 72 h

| SMILES | Antibiofilm activity against any type of biofilm [3] | MBEC against Staphylococcus aureus biofilm [12] [mg/L] | MHC5% (minimum hemolytic concentration causing hemolysis of 5% of human red blood cells) [13] [g/L] | MBEC 24 h [5, 14] | MBEC 48 h [5, 15] | MBEC 72 h [5, 16] | MIC, range over the tested strains [6] [µg/mL] | other results |
| --- | --- | --- | --- | --- | --- | --- | --- | --- |
| OC(Cn1cncn1)(Cn1cncn1)c1ccc(F)cc1F [Fluconazole, fluconazole, reference compound] | showed no antibiofilm activity | – | – | – | – | – | – | MFC [1]: 8000 µg/mL (≈ 26.1 mM); MFC [2]: 2000 µg/mL (≈ 6.53 mM); MFC [4]: 8000 µg/mL (≈ 26.1 mM); MBEC 24 h ([5]; C. albicans biofilm cultured on polystyrene for 24 h, exposure 24 h, 25 °C, RPMI, resazurin, metabolic activity reduced to 10% or less, four times on four days): >512 * mg/L; MBEC 48 h ([5]; C. albicans biofilm cultured on polystyrene for 48 h, exposure 24 h, 25 °C, RPMI, resazurin, metabolic activity reduced to 10% or less, four times on four days): >512 * mg/L; MBEC 72 h ([5]; C. albicans biofilm cultured on polystyrene for 72 h, exposure 24 h, 25 °C, RPMI, resazurin, metabolic activity reduced to 10% or less, four times on four days): >512 * mg/L; Fungicidal activity (MFC relative to MIC) ([6]; MFCs equal to or twice as high as the corresponding MICs): fungicidal activity against C. albicans and C. glabrata; MIC [7]: 4000 µg/mL (≈ 13.1 mM); MIC [8]: 2000 µg/mL (≈ 6.53 mM); MIC [9]: 500 µg/mL (≈ 1.63 mM); MFC [10]: 8000 µg/mL (≈ 26.1 mM); MIC [11]: 2000 µg/mL (≈ 6.53 mM) |
| CCCCCCCC(=O)N[C@@H](CCCCN)C(=O)N[C@@H](CCCNC(=N)N)C(=O)N[C@H](C(=O)N[C@H](C(=O)N[C@@H](CCC(N)=O)C(=O)N[C@@H](CCCNC(=N)N)C(=O)N[C@H](C(=O)N[C@@H](CCCCN)C(=O)N[C@@H](CC(=O)O)C(=O)N[C@@H](Cc1ccccc1)C(=O)N[C@@H](CC(C)C)C(=O)N[C@@H](CCCNC(=N)N)C(N)=O)[C@@H](C)CC)C(C)C)[C@@H](C)CC [IV, C8-KR12-NH2] (Octanoyl-KRIVQRIKDFLR-NH2) | – | 4 to 16 | 64 | – | – | – | – | – |
| CCCCCCCCCCCC(=O)N[C@@H](CCCCN)C(=O)N[C@@H](CCCNC(=N)N)C(=O)N[C@H](C(=O)N[C@H](C(=O)N[C@@H](CCC(N)=O)C(=O)N[C@@H](CCCNC(=N)N)C(=O)N[C@H](C(=O)N[C@@H](CCCCN)C(=O)N[C@@H](CC(=O)O)C(=O)N[C@@H](Cc1ccccc1)C(=O)N[C@@H](CC(C)C)C(=O)N[C@@H](CCCNC(=N)N)C(N)=O)[C@@H](C)CC)C(C)C)[C@@H](C)CC [VI, C12-KR12-NH2] (Lauroyl-KRIVQRIKDFLR-NH2) | – | 64 to 256 | 4 | 512 mg/L | >512 * mg/L | >512 * mg/L | 4 to 8 | – |
| CCCCCCCCCCCCCC(=O)N[C@@H](CCCCN)C(=O)N[C@@H](CCCNC(=N)N)C(=O)N[C@H](C(=O)N[C@H](C(=O)N[C@@H](CCC(N)=O)C(=O)N[C@@H](CCCNC(=N)N)C(=O)N[C@H](C(=O)N[C@@H](CCCCN)C(=O)N[C@@H](CC(=O)O)C(=O)N[C@@H](Cc1ccccc1)C(=O)N[C@@H](CC(C)C)C(=O)N[C@@H](CCCNC(=N)N)C(N)=O)[C@@H](C)CC)C(C)C)[C@@H](C)CC [VII, C14-KR12-NH2] (Myristoyl-KRIVQRIKDFLR-NH2) | – | 64 to 256 | 4 | 256 mg/L | 256 mg/L | 512 mg/L | 4 to 8 | – |
| CCCCCCC(CCCC)C(=O)N[C@@H](CCCCN)C(=O)N[C@@H](CCCNC(=N)N)C(=O)N[C@H](C(=O)N[C@H](C(=O)N[C@@H](CCC(N)=O)C(=O)N[C@@H](CCCNC(=N)N)C(=O)N[C@H](C(=O)N[C@@H](CCCCN)C(=O)N[C@@H](CC(=O)O)C(=O)N[C@@H](Cc1ccccc1)C(=O)N[C@@H](CC(C)C)C(=O)N[C@@H](CCCNC(=N)N)C(N)=O)[C@@H](C)CC)C(C)C)[C@@H](C)CC (stereo partly drawn) [XIX, 2-Butyloctanoic acid-KR12-NH2] (X1-KRIVQRIKDFLR-NH2) | did not exhibit antibiofilm activity | – | 16 | >512 * mg/L | >512 * mg/L | >512 * mg/L | 4 to 16 | – |
